Results reported in BigSolDB 2.1.

CCOc1ccc2ccccc2c1C(=O)O
solubility (mole fraction)
Conditions | 278.15 K | 283.15 K | 288.15 K | 293.15 K | 298.15 K | 303.15 K | 308.15 K | 313.15 K | 318.15 K | 323.15 K
in ethanol | 0.0268 | 0.0325 | 0.0392 | 0.0469 | 0.0565 | 0.0688 | 0.0836 | 0.101 | 0.119 | 0.136
in methanol | 0.0304 | 0.037 | 0.0443 | 0.0552 | 0.0671 | 0.0821 | 0.0951 | 0.114 | 0.134 | 0.151
in n-propanol | 0.0212 | 0.0236 | 0.0283 | 0.0345 | 0.0424 | 0.0511 | 0.0632 | 0.0779 | 0.092 | 0.114
